# Tested on: corn rootworm larvae
# Assay: corn rootworm feeding damage field screen, root damage rated on the Node-Injury Scale
# Type: in vivo, Diabrotica spp.
# Settings: Node-Injury Scale 0-3; insecticide treated non-insecticidal protein containing corn plants; 5 ounces per 1000 feet of row; artificially infested plots
# Procedure: Transgenic corn plants were assayed for corn rootworm resistance to feeding damage by greenhouse and field screens. Root damage was rated using the Node-Injury Scale (NIS) developed by Oleson and Tollefson of Iowa State University, this scale rates damage done to corn roots using 0-3 values. The 0.00 value describes no feeding damage and is the lowest rating, 1.00 describes one node or the equivalent of an entire node eaten back to within approximately two inches of the stalk, 2.00 describes two complete nodes eaten, and 3.00 describes three or more nodes eaten and is the highest rating. Damage in between complete nodes eaten is noted as the percentage of the node missing, i.e., 1.50 describes 1½ nodes eaten, 0.25 describes ¼ of one node eaten. Field plots were artificially infested with corn rootworm larvae by applying 1500-2000 eggs per linear foot of row at the V3-V4 growth stage. Insecticide treated rows were treated with Tefluthrin insecticide (Force® 3G, Zeneca Ag Products) at a rate of 5 ounces per 1000 feet of row.
smiles,measurement,value
Cc1c(F)c(F)c(COC(=O)[C@@H]2[C@H](/C=C(\Cl)C(F)(F)F)C2(C)C)c(F)c1F (racemic) [Tefluthrin],average RDR,0.44

# Reference: patent US9556492B2, “Corn plant MON88017 and compositions and methods for detection thereof” (Monsanto Technology LLC, priority 2003, dated 2017)
